Assay results: patent US20090306227A1, “TABLET FOR REMOVING TONGUE COATING” (priority 2005, published 2009)

Test: Solubility of saccharides in water at 37° C.
Assay type: physicochemical
Details: for Used Saccharide (Solubility at 37° C. (weight %)): value in parentheses under the saccharide name; for Solubility in water at 37° C.: unit from the definition, the table prints none
Procedure: The solubility can be determined by a method well-known to those skilled in the art. For example, solubility (% by weight) can be determined as follows. A solute is dissolved gradually in water of weight W1 at 37° C. When the largest amount of the solute is dissolved in the water, the weight of the solution is W2. The weight of the dissolved solute W3 (=W2−W1) is divided by the weight of the solution W2, and multiplied by 100 (i.e., converted to a percentage).

Row | Molecule | Used Saccharide (Solubility at 37° C. (weight %)) | Solubility in water at 37° C.
1 | OC[C@@H](O)[C@@H](O[C@H]1O[C@H](CO)[C@@H](O)[C@H](O)[C@H]1O)[C@H](O)[C@@H](O)CO [Maltitol] | (63) weight % | 63 % by weight
2 | OC[C@H]1O[C@H](O[C@H]2O[C@H](CO)[C@@H](O)[C@H](O)[C@H]2O)[C@H](O)[C@@H](O)[C@@H]1O [Trehalose] | (52) weight % | 52 % by weight
3 | OC[C@@H](O)[C@@H](O)[C@H](O)[C@H](O)CO [Mannitol] | (23) weight % | 23 % by weight
4 | OC[C@H]1O[C@@](CO)(O[C@H]2O[C@H](CO)[C@@H](O)[C@H](O)[C@H]2O)[C@@H](O)[C@@H]1O [Sucrose] | (68) weight % | 68 % by weight
5 | OC[C@@H](O)[C@@H](O)[C@H](O)[C@@H](O)CO [Sorbitol] | (74) weight % | 74 % by weight
6 | O=C(CO)[C@@H](O)[C@H](O)[C@H](O)CO [Fructose] | (84) weight % | 84 % by weight
7 | OC[C@H]1O[C@H](OC[C@H]2OC(O)(CO)[C@@H](O)[C@@H]2O)[C@H](O)[C@@H](O)[C@@H]1O (stereo partly shown) [Palatinose] | (40) weight % | 40 % by weight
8 | OC[C@@H](O)[C@@H](O[C@@H]1O[C@H](CO)[C@H](O)[C@H](O)[C@H]1O)[C@H](O)[C@@H](O)CO [Lactitol] | (70) weight % | 70 % by weight
9 | OC[C@@H](O)[C@H](O)[C@@H](O)CO [Xylitol] | (72) weight % | 72 % by weight
10 | Palatinit | (37) weight % | 37 % by weight
11 | OC[C@@H](O)[C@@H](O)CO [Erythritol] | (44) weight % | 44 % by weight
